The term pIC50 denotes −log10 of the IC50, conventionally taken in molar units.

Among the data in ChEMBL document CHEMBL3860068, “Class II Phosphoinositide 3-Kinases as Novel Drug Targets” (J Med Chem, 2017) are IC50 values, retold here.

SMILES strings stand for the structures. pIC50: −log10 of the molar value.

Assay [1] has as its target T1, Phosphatidylinositol 4-phosphate 3-kinase C2 domain-containing subunit alpha (Homo sapiens, UniProt O00443). Description: Inhibition of PI3KC2alpha (unknown origin).
Assay [2] deals with T2, Phosphatidylinositol 4-phosphate 3-kinase C2 domain-containing subunit beta (Homo sapiens, UniProt O00750). The assay can be described thus: Inhibition of PI3KC2beta (unknown origin).
T2 sequence (O00750 whole entry, the tested form may be a part): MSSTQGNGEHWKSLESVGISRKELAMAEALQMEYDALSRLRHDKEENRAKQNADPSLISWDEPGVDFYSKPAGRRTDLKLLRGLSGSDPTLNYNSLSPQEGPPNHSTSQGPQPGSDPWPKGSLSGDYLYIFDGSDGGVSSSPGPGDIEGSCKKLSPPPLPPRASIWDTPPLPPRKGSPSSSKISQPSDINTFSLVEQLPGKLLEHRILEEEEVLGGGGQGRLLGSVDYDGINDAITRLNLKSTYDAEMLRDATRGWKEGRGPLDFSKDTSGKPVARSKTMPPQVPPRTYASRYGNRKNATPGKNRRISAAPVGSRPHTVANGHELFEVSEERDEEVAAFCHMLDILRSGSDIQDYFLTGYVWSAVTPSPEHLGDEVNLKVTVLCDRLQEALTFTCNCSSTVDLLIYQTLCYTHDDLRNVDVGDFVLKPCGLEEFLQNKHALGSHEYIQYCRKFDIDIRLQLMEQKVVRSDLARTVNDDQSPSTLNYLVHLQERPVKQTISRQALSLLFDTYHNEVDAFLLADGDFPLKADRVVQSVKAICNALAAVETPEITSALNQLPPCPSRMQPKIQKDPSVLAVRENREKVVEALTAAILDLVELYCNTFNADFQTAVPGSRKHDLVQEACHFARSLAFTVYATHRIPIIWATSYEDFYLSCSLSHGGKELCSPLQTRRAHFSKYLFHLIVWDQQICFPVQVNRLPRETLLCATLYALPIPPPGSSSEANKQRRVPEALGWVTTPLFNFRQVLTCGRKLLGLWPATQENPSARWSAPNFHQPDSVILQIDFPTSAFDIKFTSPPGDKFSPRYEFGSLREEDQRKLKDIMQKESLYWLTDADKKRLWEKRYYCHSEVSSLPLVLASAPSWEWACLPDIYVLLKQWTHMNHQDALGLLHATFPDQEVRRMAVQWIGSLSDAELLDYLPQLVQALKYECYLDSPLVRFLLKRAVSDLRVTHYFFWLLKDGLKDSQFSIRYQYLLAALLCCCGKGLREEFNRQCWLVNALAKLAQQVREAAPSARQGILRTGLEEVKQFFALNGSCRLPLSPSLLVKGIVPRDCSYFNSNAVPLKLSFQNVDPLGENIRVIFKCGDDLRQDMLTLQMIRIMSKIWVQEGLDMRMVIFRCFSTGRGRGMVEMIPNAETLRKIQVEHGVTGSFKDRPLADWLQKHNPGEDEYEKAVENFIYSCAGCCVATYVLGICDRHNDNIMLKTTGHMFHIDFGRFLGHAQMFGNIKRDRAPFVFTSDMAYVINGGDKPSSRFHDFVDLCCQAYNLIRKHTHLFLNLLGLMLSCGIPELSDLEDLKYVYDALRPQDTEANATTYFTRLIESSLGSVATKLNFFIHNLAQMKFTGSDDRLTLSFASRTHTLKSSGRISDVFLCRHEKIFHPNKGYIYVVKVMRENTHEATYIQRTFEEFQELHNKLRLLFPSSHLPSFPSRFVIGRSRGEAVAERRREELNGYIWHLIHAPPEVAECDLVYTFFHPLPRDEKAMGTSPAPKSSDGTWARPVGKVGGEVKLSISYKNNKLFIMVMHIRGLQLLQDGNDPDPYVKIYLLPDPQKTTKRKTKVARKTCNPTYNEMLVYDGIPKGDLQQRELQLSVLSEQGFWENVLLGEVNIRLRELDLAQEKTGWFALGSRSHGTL
Assay [3] concerns the target T3, Phosphatidylinositol 3-kinase C2 domain-containing subunit gamma (Homo sapiens, UniProt O75747).
T3 sequence (O75747 whole entry): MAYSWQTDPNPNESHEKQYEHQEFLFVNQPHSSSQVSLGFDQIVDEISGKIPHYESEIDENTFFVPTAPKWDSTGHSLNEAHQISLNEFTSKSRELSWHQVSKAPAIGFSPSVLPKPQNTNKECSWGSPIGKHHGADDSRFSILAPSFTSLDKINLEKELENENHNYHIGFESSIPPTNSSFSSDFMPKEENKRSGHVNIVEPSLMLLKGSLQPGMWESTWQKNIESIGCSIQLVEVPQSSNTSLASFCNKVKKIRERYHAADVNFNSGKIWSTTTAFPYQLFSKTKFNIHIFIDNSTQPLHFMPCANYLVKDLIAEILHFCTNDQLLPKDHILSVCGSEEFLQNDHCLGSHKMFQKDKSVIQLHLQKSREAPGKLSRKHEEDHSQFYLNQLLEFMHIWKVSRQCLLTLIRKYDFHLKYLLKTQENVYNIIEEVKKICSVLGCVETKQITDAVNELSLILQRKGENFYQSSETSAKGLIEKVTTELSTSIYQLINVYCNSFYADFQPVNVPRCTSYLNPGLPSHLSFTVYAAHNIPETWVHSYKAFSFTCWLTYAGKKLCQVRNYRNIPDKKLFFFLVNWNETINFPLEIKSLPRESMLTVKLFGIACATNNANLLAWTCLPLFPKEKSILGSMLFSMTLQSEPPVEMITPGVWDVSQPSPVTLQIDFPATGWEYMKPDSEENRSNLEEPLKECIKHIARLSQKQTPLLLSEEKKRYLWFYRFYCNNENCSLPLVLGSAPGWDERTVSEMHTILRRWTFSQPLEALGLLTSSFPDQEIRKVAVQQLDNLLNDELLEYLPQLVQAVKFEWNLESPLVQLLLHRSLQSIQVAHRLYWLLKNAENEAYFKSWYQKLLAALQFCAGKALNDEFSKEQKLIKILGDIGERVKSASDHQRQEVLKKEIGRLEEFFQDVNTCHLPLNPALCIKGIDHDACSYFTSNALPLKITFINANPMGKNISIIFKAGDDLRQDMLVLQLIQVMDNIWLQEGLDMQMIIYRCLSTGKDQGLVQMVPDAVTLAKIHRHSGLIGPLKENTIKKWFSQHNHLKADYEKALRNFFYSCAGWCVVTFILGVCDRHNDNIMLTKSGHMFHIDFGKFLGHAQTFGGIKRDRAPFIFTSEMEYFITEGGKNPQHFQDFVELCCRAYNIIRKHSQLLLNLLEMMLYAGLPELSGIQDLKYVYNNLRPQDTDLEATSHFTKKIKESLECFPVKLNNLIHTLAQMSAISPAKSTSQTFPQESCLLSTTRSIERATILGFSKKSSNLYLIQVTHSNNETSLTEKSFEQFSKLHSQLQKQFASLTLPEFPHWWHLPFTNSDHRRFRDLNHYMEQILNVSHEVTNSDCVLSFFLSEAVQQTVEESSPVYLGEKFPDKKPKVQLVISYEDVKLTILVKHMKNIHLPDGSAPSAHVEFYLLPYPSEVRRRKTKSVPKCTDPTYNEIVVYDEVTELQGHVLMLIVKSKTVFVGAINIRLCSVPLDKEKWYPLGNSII
Description: Inhibition of PI3KC2gamma (unknown origin).

Assay [4] is described as follows: Inhibition of class 1 PI3K (unknown origin). Details: species or system Homo sapiens.
Assay [5] in a line: Inhibition of class 4 PI3K (unknown origin). The arrangement: species or system Homo sapiens.
The target of assay [6] is T4, Phosphatidylinositol 3-kinase catalytic subunit type 3 (Homo sapiens, UniProt Q8NEB9). The assay can be described thus: Inhibition of human recombinant Vps34 using substrate PI incubated for 1 hr by Adapta kinase assay.
T4 sequence (Q8NEB9 whole entry): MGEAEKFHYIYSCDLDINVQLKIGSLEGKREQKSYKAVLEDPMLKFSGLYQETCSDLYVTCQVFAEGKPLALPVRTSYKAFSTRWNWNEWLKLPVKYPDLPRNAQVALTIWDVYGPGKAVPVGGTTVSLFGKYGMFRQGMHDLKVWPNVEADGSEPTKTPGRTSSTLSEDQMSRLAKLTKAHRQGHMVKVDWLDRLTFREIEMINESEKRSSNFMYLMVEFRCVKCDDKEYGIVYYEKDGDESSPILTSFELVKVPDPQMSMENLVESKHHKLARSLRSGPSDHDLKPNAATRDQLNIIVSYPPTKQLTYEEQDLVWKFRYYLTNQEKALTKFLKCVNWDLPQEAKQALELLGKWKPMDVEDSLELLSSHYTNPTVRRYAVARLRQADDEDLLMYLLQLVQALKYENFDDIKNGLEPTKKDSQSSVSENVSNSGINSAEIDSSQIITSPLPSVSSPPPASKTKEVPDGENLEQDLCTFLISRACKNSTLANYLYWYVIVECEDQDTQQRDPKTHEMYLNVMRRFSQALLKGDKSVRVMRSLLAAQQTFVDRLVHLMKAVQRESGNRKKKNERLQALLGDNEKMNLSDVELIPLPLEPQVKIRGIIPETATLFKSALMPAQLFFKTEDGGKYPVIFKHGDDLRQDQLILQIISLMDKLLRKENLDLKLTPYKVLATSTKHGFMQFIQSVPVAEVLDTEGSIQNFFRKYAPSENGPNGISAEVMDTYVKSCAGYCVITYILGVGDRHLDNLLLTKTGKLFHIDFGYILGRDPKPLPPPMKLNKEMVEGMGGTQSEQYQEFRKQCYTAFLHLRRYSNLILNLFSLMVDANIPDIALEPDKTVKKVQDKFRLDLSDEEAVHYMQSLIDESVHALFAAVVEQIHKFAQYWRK
Assay [7] deals with T4, Phosphatidylinositol 3-kinase catalytic subunit type 3. The assay can be described thus: Inhibition of full length human recombinant VPS34 (unknown origin) using phosphatidylinositol and gamma-32P-ATP incubated for 20 mins by TLC assay or high-throughput membrane capture assay.
The target in assay [8] is Phosphatidylinositol 4,5-bisphosphate 3-kinase catalytic subunit gamma isoform (Homo sapiens, UniProt P48736). The assay can be described thus: Inhibition of PI3Kgamma (unknown origin).
Assay [9] concerns the target T1, Phosphatidylinositol 4-phosphate 3-kinase C2 domain-containing subunit alpha. Description: Inhibition of PI3KC2alpha (unknown origin) expressed in HEK293 cells using phosphatidylinositol and gamma-32P-ATP incubated for 20 mins by TLC assay or high-throughput membrane capture assay. The class given is cell-based.
The target in assay [10] is T2, Phosphatidylinositol 4-phosphate 3-kinase C2 domain-containing subunit beta. The assay can be described thus: Inhibition of PI3KC2beta (unknown origin) expressed in HEK293 cells using phosphatidylinositol and gamma-32P-ATP incubated for 20 mins by TLC assay or high-throughput membrane capture assay. The format is cell-based.
The target in assay [11] is T5, DNA-dependent protein kinase catalytic subunit (Homo sapiens, UniProt P78527). The assay can be described thus: Inhibition of DNA-PK (unknown origin).
The target in assay [12] is T1, Phosphatidylinositol 4-phosphate 3-kinase C2 domain-containing subunit alpha. Description: Inhibition of human recombinant PI3KC2alpha using substrate PI incubated for 1 hr by Adapta kinase assay.
Assay [13] addresses T2, Phosphatidylinositol 4-phosphate 3-kinase C2 domain-containing subunit beta. Description: Inhibition of human recombinant PI3KC2beta using substrate PI incubated for 1 hr by Adapta kinase assay.
Assay [14] deals with T4, Phosphatidylinositol 3-kinase catalytic subunit type 3. The assay can be described thus: Inhibition of N-terminal tagged full-length human VPS34 by luciferase-luciferin-coupled chemiluminescence assay.
Assay [15] deals with T5, DNA-dependent protein kinase catalytic subunit. The assay can be described thus: Inhibition of human DNA-PK by luciferase-luciferin-coupled chemiluminescence assay.

T1 sequence (O00443 whole entry, the tested form may be a part): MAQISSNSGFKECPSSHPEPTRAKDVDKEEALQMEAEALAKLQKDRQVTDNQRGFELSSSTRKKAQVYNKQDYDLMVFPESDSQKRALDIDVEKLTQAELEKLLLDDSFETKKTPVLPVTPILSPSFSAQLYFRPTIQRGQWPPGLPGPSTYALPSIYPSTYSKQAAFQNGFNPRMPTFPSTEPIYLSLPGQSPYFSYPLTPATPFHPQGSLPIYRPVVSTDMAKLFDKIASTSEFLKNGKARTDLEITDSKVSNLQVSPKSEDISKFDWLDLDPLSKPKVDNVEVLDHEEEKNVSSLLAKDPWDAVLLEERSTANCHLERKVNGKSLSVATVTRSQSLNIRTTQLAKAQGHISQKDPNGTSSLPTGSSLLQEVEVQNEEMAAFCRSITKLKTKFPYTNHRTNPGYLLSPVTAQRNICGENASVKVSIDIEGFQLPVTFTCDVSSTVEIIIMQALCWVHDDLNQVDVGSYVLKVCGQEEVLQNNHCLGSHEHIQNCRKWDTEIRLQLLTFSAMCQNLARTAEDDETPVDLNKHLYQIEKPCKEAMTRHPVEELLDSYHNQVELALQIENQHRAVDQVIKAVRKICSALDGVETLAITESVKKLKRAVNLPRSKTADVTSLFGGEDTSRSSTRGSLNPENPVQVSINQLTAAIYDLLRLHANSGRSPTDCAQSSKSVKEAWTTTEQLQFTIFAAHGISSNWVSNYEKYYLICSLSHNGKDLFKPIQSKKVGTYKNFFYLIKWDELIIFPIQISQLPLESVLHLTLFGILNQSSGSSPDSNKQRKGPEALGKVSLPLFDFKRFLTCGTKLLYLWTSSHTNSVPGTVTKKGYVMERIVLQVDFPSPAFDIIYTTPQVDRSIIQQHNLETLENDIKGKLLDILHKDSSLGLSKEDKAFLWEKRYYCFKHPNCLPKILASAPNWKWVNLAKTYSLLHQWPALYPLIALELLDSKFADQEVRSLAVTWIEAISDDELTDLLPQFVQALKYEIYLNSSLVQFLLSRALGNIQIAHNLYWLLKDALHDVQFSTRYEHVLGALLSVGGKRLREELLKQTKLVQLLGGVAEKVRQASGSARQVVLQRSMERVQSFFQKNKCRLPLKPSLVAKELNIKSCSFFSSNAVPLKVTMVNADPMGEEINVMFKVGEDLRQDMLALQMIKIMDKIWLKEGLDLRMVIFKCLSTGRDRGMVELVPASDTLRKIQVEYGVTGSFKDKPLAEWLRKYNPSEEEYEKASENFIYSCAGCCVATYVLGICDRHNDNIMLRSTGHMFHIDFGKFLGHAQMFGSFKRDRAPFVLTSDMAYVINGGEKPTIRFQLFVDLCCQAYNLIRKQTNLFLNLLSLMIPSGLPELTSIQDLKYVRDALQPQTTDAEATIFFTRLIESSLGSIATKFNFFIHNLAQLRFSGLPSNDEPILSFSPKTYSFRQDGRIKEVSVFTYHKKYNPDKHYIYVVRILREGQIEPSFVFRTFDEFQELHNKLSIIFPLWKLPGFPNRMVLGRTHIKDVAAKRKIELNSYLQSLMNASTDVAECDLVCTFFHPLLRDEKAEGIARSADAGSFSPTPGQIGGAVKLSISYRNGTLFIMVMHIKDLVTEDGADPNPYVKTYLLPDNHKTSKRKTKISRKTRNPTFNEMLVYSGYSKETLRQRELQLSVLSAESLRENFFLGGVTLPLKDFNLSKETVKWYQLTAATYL

`C[C@@H]1COCCN1c1cc(=O)n2c(n1)N(Cc1cncc(Cl)c1)[C@H](C(F)(F)F)CC2`: the pIC50 in assay [1], in assay [2], in assay [3], in [4] and in [5] was less than 5.00 throughout.

As for `CC(=O)Nc1ccc2nc(-c3cccc(NS(=O)(=O)c4ccccc4)c3)nc(N3CCOCC3)c2c1`, the pIC50 in assay [4] is less than 5.00; in assay [5] it was less than 4.00.

As for `FC(F)c1nc2ccccc2n1-c1nc(N2CCOCC2)nc(N2CCOCC2)n1` [ZSTK-474], the pIC50 in [6] is less than 4.00.

Consider `COc1ccc2c(c1OC)N=C(NC(=O)c1cccnc1)N1CCN=C21`, for which the pIC50 in [7] was 6.08.

For the compound `CS(=O)(=O)N1CCN(Cc2cc3nc(-c4cccc5[nH]ncc45)nc(N4CCOCC4)c3s2)CC1` [PICTILISIB], the pIC50 in assay [1] was less than 5.00.

Consider `CC(C)(O)CNc1ncc(-c2ccnc(Nc3ccnc(Cl)c3)n2)c(CC2CC2)n1`, for which the pIC50 in assay [1] was less than 5.00; in [2] it was less than 5.00; in assay [3], less than 5.00; in assay [4], less than 5.00; in assay [5], less than 6.00.

Regarding `Nc1ncc(-c2ccnc(Nc3ccncc3)n2)c(CC2CC2)n1`, the pIC50 in [5] is less than 5.04; in assay [8], 5.52.

On to `CC(=O)Nc1ccc2nc(-c3cccc(NS(=O)(=O)c4ccc5ccccc5c4)c3)nc(N3CCOCC3)c2c1`, for which the pIC50 in assay [4] was less than 5.00; in assay [5], less than 4.00.

With `O=C1NC(=S)S/C1=C\c1ccc2c(c1)N(Cc1ccc(F)c(Cl)c1)C(=O)CO2`, the pIC50 is 6.85 in assay [9], 6.43 in assay [10], 5.00 in assay [7] and 5.82 in [11].

As for `CC(=O)Nc1nc(C)c(-c2ccc(Cl)c(S(=O)(=O)NCCO)c2)s1`, the pIC50 in [10] was 4.85; in [7], 6.49.

`Cn1c(=O)n(-c2ccc(C(C)(C)C#N)cc2)c2c3cc(-c4cnc5ccccc5c4)ccc3ncc21` [DACTOLISIB]: the pIC50 in assay [12] was 7.47; in assay [13], 7.36; in [6], 6.35.

Consider `COc1ccc(Cl)c(Nc2nc3ccccc3nc2NS(=O)(=O)c2cccc(NC(=O)C(C)(C)N)c2)c1` [PILARALISIB], for which the pIC50 in assay [14] is 5.15; in [15] it was 5.32.
